Laboratory results published in ChEMBL document CHEMBL1143113, “Design and synthesis of 4-[(s-triazin-2-ylamino)methyl]-N-(2-aminophenyl)-benzamides and their analogues as a novel class of histone deacetylase inhibitors” (Bioorg Med Chem Lett, 2008).

Molecular target: Histone deacetylase 1 (Homo sapiens, UniProt Q13547)
Test: Inhibition of human recombinant HDAC1

Sequence of Histone deacetylase 1 (Q13547 whole entry): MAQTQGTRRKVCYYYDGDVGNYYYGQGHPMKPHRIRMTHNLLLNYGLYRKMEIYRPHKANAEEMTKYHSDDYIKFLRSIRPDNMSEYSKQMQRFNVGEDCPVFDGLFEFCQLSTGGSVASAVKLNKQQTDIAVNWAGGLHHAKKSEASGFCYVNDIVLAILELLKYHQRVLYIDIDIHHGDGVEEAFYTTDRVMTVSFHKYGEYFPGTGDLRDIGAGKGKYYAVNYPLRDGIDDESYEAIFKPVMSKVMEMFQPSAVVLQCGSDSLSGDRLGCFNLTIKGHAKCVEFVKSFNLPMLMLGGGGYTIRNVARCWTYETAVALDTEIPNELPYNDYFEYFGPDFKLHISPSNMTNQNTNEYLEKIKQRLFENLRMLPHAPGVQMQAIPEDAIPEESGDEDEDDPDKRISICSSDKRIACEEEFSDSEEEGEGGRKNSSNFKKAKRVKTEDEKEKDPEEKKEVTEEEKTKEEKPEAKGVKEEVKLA

Which IC50 does the source give for `CCCCn1cnc2c(NCc3ccc(C(=O)Nc4ccccc4N)cc3)nc(Cl)nc21` here?
Its IC50 is 50 nM.

Which IC50 does the source give for `Cc1cc(C)nc(NCc2ccc(C(=O)Nc3ccccc3N)cc2)n1` here?
The IC50 was 300 nM.

With `Nc1ccccc1NC(=O)c1ccc(CNc2cccc(F)n2)cc1` as the compound, how does the IC50 read?
Its IC50 is 100 nM.

`COc1ccc(-c2ccnc(NCc3ccc(C(=O)Nc4ccccc4N)cc3)n2)cc1OC` was tested. Which IC50 did it give?
Its IC50 is 50 nM.

`Nc1ccccc1NC(=O)c1ccc(CSc2ccccn2)cc1` was tested. Which IC50 did it give?
The IC50 was 300 nM.

For `Nc1ccccc1NC(=O)c1ccc(CNc2ncccn2)cc1`, which IC50 is on record?
Its IC50 is 700 nM.

`Cc1ccc(C#N)c(OCc2ccc(C(=O)Nc3ccccc3N)cc2)n1` was tested. Which IC50 did it give?
The IC50 was 300 nM.

`CCCCn1cnc2c(NCc3ccc(C(=O)Nc4ccccc4N)cc3)nc(N)nc21` was tested. Which IC50 did it give?
The IC50 was 300 nM.

`COc1ccc(-c2cc(Cl)nc(NCc3ccc(C(=O)Nc4ccccc4N)cc3)n2)cc1OC` was tested. Which IC50 did it give?
The IC50 was 100 nM.

With `Nc1nc(NCc2ccc(C(=O)Nc3ccccc3N)cc2)c2nc[nH]c2n1` as the compound, how does the IC50 read?
The IC50 was 200 nM.

With `COc1cc(NCc2ccc(C(=O)Nc3ccccc3N)cc2)ncn1` as the compound, how does the IC50 read?
The IC50 was 200 nM.

Which IC50 does the source give for `COc1ccc(NCc2ccc(C(=O)Nc3ccccc3N)cc2)cn1` here?
The IC50 was 100 nM.

Test system: HCT-116
Test: Cytotoxicity against human HCT116 cells by MTT assay
Format: functional, cell-based

Which IC50 does the source give for `CCCCn1cnc2c(NCc3ccc(C(=O)Nc4ccccc4N)cc3)nc(Cl)nc21` here?
The IC50 was 100 nM.

With `Cc1cc(C)nc(NCc2ccc(C(=O)Nc3ccccc3N)cc2)n1` as the compound, how does the IC50 read?
The IC50 was 1000 nM.

With `Nc1ccccc1NC(=O)c1ccc(CNc2cccc(F)n2)cc1` as the compound, how does the IC50 read?
Its IC50 is 1000 nM.

Which IC50 does the source give for `COc1ccc(-c2ccnc(NCc3ccc(C(=O)Nc4ccccc4N)cc3)n2)cc1OC` here?
The IC50 was 100 nM.

For `Nc1ccccc1NC(=O)c1ccc(CSc2ccccn2)cc1`, which IC50 is on record?
The IC50 was 1000 nM.

With `Nc1ccccc1NC(=O)c1ccc(CNc2ncccn2)cc1` as the compound, how does the IC50 read?
Its IC50 is 2000 nM.

With `Cc1ccc(C#N)c(OCc2ccc(C(=O)Nc3ccccc3N)cc2)n1` as the compound, how does the IC50 read?
Its IC50 is 500 nM.

For `CCCCn1cnc2c(NCc3ccc(C(=O)Nc4ccccc4N)cc3)nc(N)nc21`, which IC50 is on record?
Its IC50 is 2000 nM.

Which IC50 does the source give for `COc1ccc(-c2cc(Cl)nc(NCc3ccc(C(=O)Nc4ccccc4N)cc3)n2)cc1OC` here?
Its IC50 is 400 nM.

Which IC50 does the source give for `Nc1nc(NCc2ccc(C(=O)Nc3ccccc3N)cc2)c2nc[nH]c2n1` here?
Its IC50 is 10000 nM.

Which IC50 does the source give for `COc1cc(NCc2ccc(C(=O)Nc3ccccc3N)cc2)ncn1` here?
Its IC50 is 1000 nM.

Which IC50 does the source give for `COc1ccc(NCc2ccc(C(=O)Nc3ccccc3N)cc2)cn1` here?
The IC50 was 700 nM.
